Legend:
Assay in all cases: relative viability (nuclei count vs DMSO), 5 days (fraction); higher = more cells survive
[1] = compound: CN1C=C(C2=CC=CC=C21)/C=C\3/C4=C(C=CC=N4)NC3=O + COc1cccc2cc(-c3nc([C@H]4CC[C@H](C(=O)O)CC4)n4ncnc(N)c34)[nH]c12 [OSI-027] (partner 0.5 µM)
Procedure, shortened: (§1)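 Five library-drug doses in √10 steps were combined with a fixed anchor-drug dose, or a single drug was given alone, by pin tool to lung cancer cell lines in 1536-well plates the day after seeding. Nuclei were stained and counted after 5 days. Relative viability is the nuclei count in treated wells over that in vehicle wells, taken as the median of duplicate plates.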

Trametinib + Pemetrexed = compound: CC(=O)Nc1cccc(-n2c(=O)n(C3CC3)c(=O)c3c(Nc4ccc(I)cc4F)n(C)c(=O)c(C)c32)c1 [Trametinib] + Nc1nc2[nH]cc(CCc3ccc(C(=O)N[C@@H](CCC(=O)O)C(=O)O)cc3)c2c(=O)[nH]1 [Pemetrexed] (partner 0.2 µM)
Procedure, shortened: as §1

Trametinib + Pictilisib = compound: CC(=O)Nc1cccc(-n2c(=O)n(C3CC3)c(=O)c3c(Nc4ccc(I)cc4F)n(C)c(=O)c(C)c32)c1 [Trametinib] + CS(=O)(=O)N1CCN(Cc2cc3nc(-c4cccc5[nH]ncc45)nc(N4CCOCC4)c3s2)CC1 [Pictilisib] (partner 1 µM)
Procedure, shortened: as §1

[2] = compound: CN1C=C(C2=CC=CC=C21)/C=C\3/C4=C(C=CC=N4)NC3=O + N=C(N)NC(=N)NCCc1ccccc1 [Phenformin] (partner 250 µM)
Procedure, shortened: as §1

| Cell Line | relative viability ([1]; first compound 0.02 µM) | relative viability ([1]; first compound 0.06325 µM) | relative viability ([1]; first compound 0.2 µM) | relative viability ([1]; first compound 0.6325 µM) | relative viability ([1]; first compound 2 µM) | relative viability (Trametinib + Pemetrexed; first compound 0.0025 µM) | relative viability (Trametinib + Pemetrexed; first compound 0.007906 µM) | relative viability (Trametinib + Pemetrexed; first compound 0.025 µM) | relative viability (Trametinib + Pemetrexed; first compound 0.07906 µM) | relative viability (Trametinib + Pemetrexed; first compound 0.25 µM) | relative viability (Trametinib + Pictilisib; first compound 0.0025 µM) | relative viability (Trametinib + Pictilisib; first compound 0.007906 µM) | relative viability (Trametinib + Pictilisib; first compound 0.025 µM) | relative viability (Trametinib + Pictilisib; first compound 0.07906 µM) | relative viability (Trametinib + Pictilisib; first compound 0.25 µM) | relative viability ([2]; first compound 0.02 µM) | relative viability ([2]; first compound 0.06325 µM) | relative viability ([2]; first compound 0.2 µM) | relative viability ([2]; first compound 0.6325 µM) | relative viability ([2]; first compound 2 µM) |
| --- | --- | --- | --- | --- | --- | --- | --- | --- | --- | --- | --- | --- | --- | --- | --- | --- | --- | --- | --- | --- |
| NCI-H1755 | 0.619 | 0.654 | 0.655 | 0.683 | 0.644 | 0.378 | 0.452 | 0.411 | 0.47 | 0.397 | 0.396 | 0.348 | 0.248 | 0.331 | 0.228 | 0.532 | 0.537 | 0.523 | 0.263 | 0.571 |
| LOU-NH91 | 0.728 | 0.688 | 0.696 | 0.63 | 0.7 | 0.403 | 0.414 | 0.418 | 0.374 | 0.382 | 0.469 | 0.497 | 0.479 | 0.45 | 0.353 | 0.727 | 0.624 | 0.623 | 0.66 | 0.645 |
| EMC-BAC-2 | 0.388 | 0.384 | 0.391 | 0.405 | 0.362 | 0.547 | 0.489 | 0.572 | 0.544 | 0.56 | 0.517 | 0.429 | 0.379 | 0.423 | 0.331 | 0.538 | 0.525 | 0.522 | 0.475 | 0.533 |
| ChaGo-K-1 | 0.56 | 0.672 | 0.339 | 0.613 | 0.609 | 0.281 | 0.253 | 0.261 | 0.259 | 0.248 | 0.841 | 0.47 | 0.694 | 0.261 | 0.461 | 0.419 | 0.492 | 0.41 | 0.522 | 0.471 |
| NCI-H2023 | 0.395 | 0.351 | 0.231 | 0.337 | 0.316 | 0.205 | 0.187 | 0.184 | 0.189 | 0.14 | 0.213 | 0.141 | 0.137 | 0.175 | 0.143 | 0.395 | 0.376 | 0.361 | 0.409 | 0.418 |
| EKVX | 0.589 | 0.434 | 0.855 | 0.682 | 0.627 | 0.345 | 0.381 | 0.402 | 0.312 | 0.358 | 0.363 | 0.318 | 0.228 | 0.214 | 0.193 | 0.206 | 0.227 | 0.226 | 0.201 | 0.236 |
| NCI-H2085 | 0.897 | 0.717 | 0.597 | 0.716 | 0.67 | 0.752 | 0.676 | 0.545 | 0.528 | 0.516 | 0.412 | 0.353 | 0.418 | 0.327 | 0.32 | 0.74 | 0.656 | 0.647 | 0.778 | 0.72 |
| NCI-H3122 | 0.879 | 0.9 | – | 1.18 | 1.4 | 0.187 | 0.183 | 0.166 | 0.149 | 0.149 | 0.287 | 0.24 | 0.197 | 0.189 | 0.175 | 0.347 | 0.333 | – | 0.375 | 0.355 |

From the supplement of paper PMC10307832
